From paper PMC4676410 (Journal of medicinal chemistry, 2015)
Like-named read-outs stand apart in the source and are kept apart here.

Tests used:
[1] = biological target: HIV-1 reverse transcriptase (RT) (Human immunodeficiency virus type 1 group M subtype B, UniProt P12497); experiment: HIV-1 reverse transcriptase
[2] = test system: laboratory-adapted HIV-1 strains; experiment: microbe, parasite or virus in culture; type: cell-based
HIV-1 Env pseudoviruses = type: cell-based; details: TZM-bl, HIV-1HXB2
HIV-1ADA = experiment: CD4-dependent CCR5-tropic HIV-1 cell-cell transmission assay; type: cell-based; details: Ghost X4/R5 and MOLT-4/HIV-1ADA
[3] = test system: lab-adapted and primary HIV-1 isolates; experiment: microbe, parasite or virus in culture; type: cell-based; details: Human immunodeficiency virus 1, PBMC, laboratory strain BaL, subtype B, R5
A-MLV = experiment: microbe, parasite or virus in culture; type: cell-based; details: Murine leukemia virus
YU2 core gp120 [4] = experiment: Competitive SPR: VRC-PG04 binding to immobilized YU2 core gp120; design: species or system HIV-1; details: at higher ratios of NBD-11021 versus VRC-PG04
SHIVSF162P3 = experiment: Antiviral activity against SHIV; type: cell-based; details: Table S2
HIV-1IIIB = experiment: CD4-dependent CXCR4-tropic HIV-1 cell-cell transmission assay; type: cell-based; details: Ghost X4/R5 and H9/HIV-1IIIB
[5] = test system: HIV-1ADA (CCR5-tropic) pseudovirus; experiment: Single-cycle infection assay in U87-CD4-CCR5 cells
YU2 core gp120 [6] = experiment: Competitive SPR: sCD4 binding to immobilized YU2 core gp120; design: species or system HIV-1; details: NBD-11021 12.5-200 μM
SIVmac186 = experiment: Antiviral activity against SIV; type: cell-based; details: Table S2
VSV-G = experiment: microbe, parasite or virus in culture; type: cell-based; details: Human immunodeficiency virus 1
[7] = test system: HIV-1HXB2 (CXCR4-tropic) pseudovirus; experiment: Single-cycle infection assay in U87-CD4-CXCR4 cells; details: U87-CD4-CXCR4, HIV-1HXB2
YU2 core gp120 [8] = experiment: SPR: binding of YU2 core gp120 to captured mAb 17b in presence of compounds; design: species or system HIV-1; details: sCD4 15-fold excess, compounds 50-fold excess
HIV-2 isolates = experiment: Antiviral activity against HIV-2; type: cell-based; details: Table S2
[9] = test system: fusion between MAGI-CCR5 and HL 2/3 cells; experiment: HIV-1 cell-cell fusion assay; type: cell-based; details: read-out: IC50, cell-cell fusion assay
[10] = Human immunodeficiency virus 1, MT2, MT-2, HIV-1IIIB

Row | SMILES | IC50 [1] | IC50 [2, 10] | IC50 (HIV-1 Env pseudoviruses) | IC50 ([2]; Human immunodeficiency virus 1, MT2, laboratory strain RF, subtype B, MT-2, R5X4) | inhibition of CCR5-tropic cell-cell transmission (in words) (HIV-1ADA) | IC50 [3] | IC50 (A-MLV) | competition with VRC-PG04 for binding to gp120 (in words) (YU2 core gp120 [4]) | activity against SHIVSF162P3 (in words) (SHIVSF162P3) | inhibition of CXCR4-tropic cell-cell transmission (in words) (HIV-1IIIB) | IC50 ([5]; Pseudovirus, U87/CD4/CCR5, U87-CD4-CCR5, HIV-1ADA) | IC50 ([5]; U87/CD4/CCR5, read-out: IC50 against CCR5- and CXCR4-tropic HIV-1) | competition with sCD4 for binding to gp120 (in words) (YU2 core gp120 [6]) | activity against SIVmac186 (in words) (SIVmac186) | IC50 (VSV-G) | IC50 [7] | enhancement of mAb 17b binding to YU2 core gp120 (in words) (YU2 core gp120 [8]) | activity against HIV-2 isolates (in words) (HIV-2 isolates) | IC50 [9]
1 | Cc1cn([C@H]2C[C@H](N=[N+]=[N-])[C@@H](CO[P@](=O)(O)O[P@](=O)(O)OP(=O)(O)O)O2)c(=O)[nH]c1=O [AZT-TP] | 8 nM | – | – | – | – | – | – | – | – | – | – | – | – | – | – | – | – | – | –
2 | Cc1nc(C(NC(=O)c2ccc(-c3ccc(Cl)cc3)[nH]2)C2CCCCN2)sc1CO (centres unmarked) [NBD-11021B, 5-(4-Chlorophenyl)-N-((5-(hydroxymethyl)-4-methylthiazol-2-yl)-(piperidin-2-yl)methyl)-1H-pyrrole-2-carboxamide] | – | 1800 ± 50 nM | 2400 ± 100 nM | – | – | – | – | – | – | – | – | – | – | – | – | – | – | – | –
3 | Cc1nc(C(NC(=O)c2ccc(-c3ccc(Cl)cc3)[nH]2)C2CCCCN2)sc1CO (mixture of isomers) [NBD-11021, 5-(4-Chlorophenyl)-N-((5-(hydroxymethyl)-4-methylthiazol-2-yl)-(piperidin-2-yl)methyl)-1H-pyrrole-2-carboxamide] | – | 1500 ± 60 nM | – | 7300 ± 600 nM | showed inhibition | 3700 ± 400 nM | 7500 ± 200 nM | effectively competed with VRC-PG04 | poor activity | inhibited cell–cell transmission effectively | 1700 ± 200 nM | 1700 to 2400 nM | competes with CD4 to bind to gp120 in a dose-dependent manner | poor activity | 10000 ± 500 nM | 2400 ± 100 nM | no enhancement | poor activity | 9800 nM
